Measurements taken from the NIST ThermoML archive (doi:10.1016/j.jct.2004.07.014).
Numbers after ± are expanded uncertainties.

Conditions: Liquid, Closed cell (Static) method

CC#N [acetonitrile]
vapor or sublimation pressure (305.51 K): 16.47 ± 0.22 kPa
vapor or sublimation pressure (323.12 K): 33.71 ± 0.25 kPa
vapor or sublimation pressure (353.13 K): 96.17 ± 0.37 kPa
